Measurements published in patent US5854010A, “Bioassay for detecting 2,3,7,8-tetrachlorodibenzo-para-dioxin and TCDD-like compounds and novel recombinant cell line useful therefor” (priority 1997, dated 1998).

Experiments:
Assay in all cases: Antagonism of TCDD luciferase induction by 2,2',5,5'-TCB (FIG. 7)
Type in all cases: cell-based
Details in all cases: TCDD 5 nM, 24 h
[1] = test system: mouse H1L1.1 cells
Description: (§1) The bar graph of FIG. 7 illustrates that 2,2',5,5'-TCB antagonizes induction of luciferase activity by TCDD in a species-specific manner, and thus, 2,2',5,5'-TCB is not a TCDD-like compound as defined herein. In particular, six-well plates containing the indicated cell lines were incubated with DMSO (control), with TCDD (5 nM), with 2,2',5,5'-TCB (25 μM), or with both TCDD (5 nM) and 2,2',5,5'-TCB (25 μM) for 24 hours. Luciferase activity in cell lysates was determined as described above. Values represent the mean ± the standard evaluation of at least triplicate determinations.

[2] = test system: guinea pig G16L1.1c8 cells
Description: as §1

[3] = test system: rat H4L1.1c4 cells
Description: as §1

[4] = test system: human HG2L1.1c3 cells
Description: as §1

Measured: Luciferase induction by TCDD alone

Clc1cc2c(cc1Cl)Oc1cc(Cl)c(Cl)cc1O2 [TCDD, 2,3,7,8-tetrachlorodibenzo-para-dioxin]
induced luciferase activity: all assays above
